Structures can show the parent of a compound that is named as a salt. Where two headings read alike, the source gives them in different places.
How the values were obtained:
[1] = Toxicity after single administration (acute toxicity, oral); details: mouse, in vivo, mice, p.o., lethality 7 days after treatment, Probits method, read-out: Acute Toxicity (DL50 approx. mg/kg p.o.)
Procedure: Toxicity after single administration.
The tests have been carried out in IVA:NMRI (SPF) mice fasted with water ad libitum since 18 hours before treatment.
The compounds were administered by the oral route, at constant volume (10 ml/kg) in a 0.2% aqueous solution of Tween 80.
On the basis of lethality observed 7 days after the treatment, the approximate LD50 were determined according to the Probits method.

[2] = test system: secretion of hydrochloric acid in the stomach (Shay ulcers); test: Antisecretory activity - Shay ulcers (pylorus-ligated rat); type: in vivo; details: for Emax: Rattus norvegicus, α=1 represents 100% inhibition of gastric acid hypersecretion, read-out: α (approximate value of intrinsic activity); for Emax / ED50: 2 h; for ED50: rat, pylorus ligation, intraduodenal or intravenous; for PR (potency ratio in comparison with Omeprazole): ratio of mean ED50 on the 3 parameters of test compound to mean ED50 of omeprazole
Procedure: Antisecretory activity--Shay ulcers The gastric secretory inhibitory activity of the compounds of general formula (I) was determined in case of hypersecretion induced in the rat by ligation of gastroduodenal junction according to the procedure described by Shay (Shay H. et al, Gasgroenterology 5, 43-61, 1945). […] Thereafter, they were fasted for 24 hours, with water ad libitum, which period was sufficient to assure a good gastric emptying, then laparectomized under light ether anesthesia, so as to allow to effect a pylorus ligation as closer as possible to the gastroduodenal junction. Two hours after the ligation, the animals were killed by means of an ether excess and stomaches were removed. Gastric contents were recovered, after filtration through a gauze, and placed in graduated test-tubes and centrifuged at 3000×g for 15 minutes. The following parameters were evaluated on the surnatant: volume (ml); pH; free acidity by conversion of pH into H^+ μEq by means of Moore table (Ann. New York Acad. Sci. 1967, 866-874); titrable acidity, by titration of an amount with 0.02N NaOH, using phenolphtalein as the indicator. […] The results were expressed as percent inhibition of hypersecretion induced by pylorus ligation in the control rats. The obtained results are reported in table 3 as: ED50 (μmol/kg) calculated on the basis of the equation of the linear tract of does-effect curves obtained with the test compounds on volume, free and titrable acidities; […]

[3] = test system: gastric hemorrhagic lesions induced by absolute ethanol; test: Protection against gastric lesions induced in rats by necrotizing agents (absolute ethanol); type: in vivo; details: po; rat, gavage 30 minutes before 1 ml absolute ethanol; lesion score ≤ 2 considered protected
Procedure: Protection against gastric lesions induced in rats by necrotizing agents
The experiments were done on male rats weighing 260-300 g starved (with free access to water) for 18 hours.
Absolute ethanol was administered by gavage in the volume of 1 ml.
Test substances or the vehicle alone for the controls were given by gavage 30 minutes before the necrotizing agent in a 5% suspension of methylcellulose volume 2.5 ml kg^-1. One hour after administration of the necrotizing agent, the animals were killed and examined for lesions of the glandular portion of the gastric mucosa. The lesions presenting as blackish lesions grouped in patches of varying size, usually parallel to the major axis of the stomach, were scored according to the following arbitrary scale:
1=hyperemic mucosa, or up to 3 small patches;
2=from 4 to 10 small patches;
3=more than 10 small or up to 3 medium-sized patches;
4=from 4 to 6 medium-sized patches;
5=more than 6 medium-sized or up to 3 large patches;
6=from 4 to 6 large patches;
7=from 7 to 10 large patches;
8=more than 10 large patches or extensive necrotic zones.
"Small"0 was defined as up to 2 mm across (max diameter), "medium-sized" as between 2 and 4 mm across and "large" as more than 4 mm across.
Animals with gastric lesion score ≤ 2 were considered protected.
ED50 values were calculated according to Wilcoxon method.
The results are expressed in table 5.

[4] = test system: secretion of hydrochloric acid in the stomach; test: Lumen-perfused rat stomach in situ (histamine-induced hypersecretion); type: in vivo; details: for ED50: histamine 35 mcg/kg/min, 3 hours; for ED50 / α (intrinsic activity): intraduodenal; for α (intrinsic activity): histamine; for PR = potency ratio: in comparison with omeprazole
Procedure: Lumen-perfused rat stomach in situ The experiments were done according to Ghosh M. N. and Schild H. O. (Br. J. Pharmacol. 13, 54-61, 1958). […] After a midline abdominal incision, a PVC tube was inserted into the stomach via the esophagus and the stomach was perfused with saline (37° C.) at a rate of 1 ml/min. A second tube draining the pylorus was inserted through the abdominal wall for collection of gastric secretion. […] After equilibration of basal secretion an hypersecretion was induced by infusion of histamine 35 mcg/kg/min, through the femoral vein. […] Mean gastric output was determined for a 3 hours test period following drug administration. The last 30 minutes interval prior to dosing was used as a control. The dose-response relationship was established using the maximum inhibition obtained at each individual dose.

stomach of animals = details: animals treated over a long period; cited from earlier work
[5] = free acid output, read-out: ED50 free acid output
[6] = secretion volume, read-out: ED50 volume
[7] = titratable acid output, read-out: ED50 titratable acid output
[8] = read-out: ED50 free acid output
[9] = read-out: ED50 titratable acid output

COc1ccc2[nH]c([S+]([O-])Cc3ncc(C)c(OC)c3C)nc2c1 (stereo not drawn) [Omeprazole HCL, reference compound]
LD50 at 168 h [1]: ~1400 mg/kg

[O-][S+](Cc1ccc2ccccc2n1)c1nc2cccnc2[nH]1 (stereo not drawn) [LI, 2-(2'-quinolylmethylsulfinyl)imidazo-[4,5-b]-pyridine]
Emax [2]: 100% | ED50 [2, 5]: 4.8 µmol/kg | ED50 [2, 6]: 10.3 µmol/kg | ED50 [2, 7]: 5.6 µmol/kg | PR (potency ratio in comparison with Omeprazole) [2]: 2,5 | LD50 at 168 h [1]: ~750 mg/kg | ED50 [3]: 20 mg/kg

COc1ccc(C)nc1CSc1ncnc2[nH]cnc12 [XLIII]
Emax [2]: 100% | ED50 [2, 5]: 83 µmol/kg | ED50 [2, 6]: 89 µmol/kg | ED50 [2, 7]: 81.6 µmol/kg | PR (potency ratio in comparison with Omeprazole) [2]: 30,6 | ED50 [3]: 60 mg/kg

Fc1ccc(-n2ccnc2SCc2nc3ccccc3[nH]2)cc1 [XXIV]
Emax [2]: 70 to 80% | ED50 [2, 5]: 12.5 µmol/kg | ED50 [2, 6]: 20.5 µmol/kg | ED50 [2, 7]: 15.7 µmol/kg | PR (potency ratio in comparison with Omeprazole) [2]: 5,9 | LD50 at 168 h [1]: ~2000 mg/kg | ED50 [3]: 47 mg/kg

Fc1cccc(-n2ccnc2SCc2nc3ccccc3[nH]2)c1 [XXI, 1-(3'-fluorophenyl)-2-[2'-(benzimidazolyl)methylthio]imidazole.2HCl]
Emax [2]: 100% | ED50 [2, 5]: 27 µmol/kg | ED50 [2, 6]: 38 µmol/kg | ED50 [2, 7]: 29 µmol/kg | PR (potency ratio in comparison with Omeprazole) [2]: 11,3 | LD50 at 168 h [1]: ~900 mg/kg | ED50 [3]: 70 mg/kg

CN(C)c1ccccc1CSc1nccn1C [XI, 1-methyl-2-[2'-(N,N-dimethylanilyl)methylthio]imidazole. 2HCl]
Emax [2]: 100% | ED50 [2, 5]: 31.9 µmol/kg | ED50 [2, 6]: 40 µmol/kg | ED50 [2, 7]: 29.6 µmol/kg | PR (potency ratio in comparison with Omeprazole) [2]: 12,2 | ED50 [4, 8]: 60.6 µmol/kg | ED50 [4, 9]: 40.9 µmol/kg | α (intrinsic activity) [4]: 1 | PR = potency ratio [4]: 22.4 | LD50 at 168 h [1]: ~450 mg/kg | ED50 [3]: 20 mg/kg

COc1ccnc(CSc2nccn2-c2cccc(F)c2)c1C [XX, 1-(3'-fluorophenyl)-2-[2'-(3'-methyl-4'-methoxypyridyl)methylthio]imidazole]
Emax [2]: 70 to 80% | ED50 [2, 5]: 65 µmol/kg | ED50 [2, 6]: 80 µmol/kg | ED50 [2, 7]: 65 µmol/kg | PR (potency ratio in comparison with Omeprazole) [2]: 25,3 | ED50 [3]: 50 mg/kg

c1ccc(-n2ccnc2SCc2nc3ccccc3[nH]2)cc1 [XXII, 1-phenyl-2-[2'-(benzimidazolyl)methylthio]imidazole.2HCl]
Emax [2]: 80% | ED50 [2, 5]: 16.8 µmol/kg | ED50 [2, 6]: 30.5 µmol/kg | ED50 [2, 7]: 22.3 µmol/kg | PR (potency ratio in comparison with Omeprazole) [2]: 8,4 | LD50 at 168 h [1]: ~1000 mg/kg | ED50 [3]: 63 mg/kg

COc1ccc(-n2ccnc2SCc2ccccc2N(C)C)cc1 [XXIX, 1-(4'-methoxyphenyl)-2-[2 '-(N,N-dimethylanilyl)methylthio]imidazole.2HCl]
Emax [2]: 100% | ED50 [2, 5]: 86.1 µmol/kg | ED50 [2, 6]: 144 µmol/kg | ED50 [2, 7]: 107 µmol/kg | PR (potency ratio in comparison with Omeprazole) [2]: 40,7 | LD50 at 168 h [1]: > 2000 mg/kg

CN(C)c1ccccc1CSc1nccn1-c1cccc(F)c1 [XIX, 1-(3'-fluorophenyl)-2-[2'-(N,N-dimethylanilyl)methylthio]imidazole.2HCl]
Emax [2]: 100% | ED50 [2, 5]: 47.3 µmol/kg | ED50 [2, 6]: 108 µmol/kg | ED50 [2, 7]: 64.3 µmol/kg | PR (potency ratio in comparison with Omeprazole) [2]: 26,4 | ED50 [4, 8]: 32.2 µmol/kg | ED50 [4, 9]: 26.7 µmol/kg | α (intrinsic activity) [4]: 1 | PR = potency ratio [4]: 13.0 | LD50 at 168 h [1]: ~1000 mg/kg | ED50 [3]: 70 mg/kg

Cn1ccnc1SCc1nc2cc(C(=O)c3ccccc3)ccc2[nH]1 [X, 1-methyl-2-[2'-(5'-benzoyl)-benzimidazolylmethylthio]imidazole. 2H3 PO4]
Emax [2]: 70 to 80% | ED50 [2, 5]: 2.7 µmol/kg | ED50 [2, 6]: 10 µmol/kg | ED50 [2, 7]: 2.7 µmol/kg | PR (potency ratio in comparison with Omeprazole) [2]: 1,9 | LD50 at 168 h [1]: ~1400 mg/kg

CN(C)c1ccccc1CSc1nccn1-c1ccccc1 [XXVIII, 1-phenyl-2-[2'-(N,N-dimethylanilyl)methylthio]imidazole. 2HCl]
Emax [2]: 100% | ED50 [2, 5]: 40.6 µmol/kg | ED50 [2, 6]: 55.4 µmol/kg | ED50 [2, 7]: 44.9 µmol/kg | PR (potency ratio in comparison with Omeprazole) [2]: 17,0 | ED50 [4, 8]: 31.4 µmol/kg | ED50 [4, 9]: 19.9 µmol/kg | α (intrinsic activity) [4]: 1 | PR = potency ratio [4]: 11.3

COc1ccc2[nH]c([S+]([O-])Cc3ncc(C)c(OC)c3C)nc2c1 (stereo not drawn) [Omeprazole, reference compound]
Emax [2]: 100% | ED50 [2, 5]: 1.8 µmol/kg | ED50 [2, 6]: 4.2 µmol/kg | ED50 [2, 7]: 2.3 µmol/kg | ED50 [4, 8]: 2.23 µmol/kg | ED50 [4, 9]: 2.3 µmol/kg | α (intrinsic activity) [4]: 1 | ED50 [3]: 73 mg/kg | carcinomas at the bottom of the stomach (stomach of animals): high incidence of carcinomas

— US5066652A, “Thiomethyl and sulfinylmethyl derivatives having gastric acid antisectetory activity and pharmaceutical compositions containing them” (Chiesi Farmaceutici S.p.A., priority 1988, dated 1991)
